These results are taken from US20100273711A1, “INDIVIDUALIZED CANCER TREATMENTS” (priority 2007, published 2010).

“Also recorded” adds a separate entry of the source.

One assay has as its system HL-60. The settings on record: pemetrexed, cell line HL-60; cited from earlier work.
The next assay deals with MDA-MB-435. The settings on record: pemetrexed, cell line MDA-MB-435; cited from earlier work.
A further assay has as its system SNU182. The settings on record: pemetrexed, cell line SNU182; cited from earlier work.
Another assay relates to SW13. The following applies: pemetrexed, cell line Sw13; cited from earlier work.
A further assay concerns OVKAR. The settings on record: pemetrexed, cell line OVKAR; cited from earlier work.
Another assay has as its system SK-MEL-2. The following applies: pemetrexed, cell line SK-MEL-2; cited from earlier work.
For a further assay, the system named is R103. The settings on record: pemetrexed, cell line R103; cited from earlier work.
In the next assay the test system is ME43. The following applies: pemetrexed, cell line me43; cited from earlier work.
The subject of a further assay is Molt-4. The settings on record: pemetrexed, cell line Molt-4; cited from earlier work.
The next assay concerns SKMel19. The settings on record: pemetrexed, cell line SKMel19; cited from earlier work.
The next assay concerns SNU423. The settings on record: pemetrexed, cell line SNU423; cited from earlier work.
Another assay concerns NSCLC cell line (H2030). Briefly: Cell proliferation and drug sensitivity assay (MTT colorimetric assay, 96 hrs), H2030. Format: cell-based. As for the experimental part:
Lung and ovarian cancer cell culture. The NSCLC cell lines (H23, H225, H322, H358, H441, H520, A549, H647, H838, H1650, H1651, H1666, H1734, H1793, H1838, H2030 and H2 126) were grown as recommended by the supplier (ATCC, Rockville, Mo.). The ovarian cancer cell lines (OCV AR-3, OVCAR-5, TOV-21G and TOV-1120) were grown as recommended by the supplier (ATCC, Rockville, Mo.). FUOV-1, a human ovarian carcinoma, was grown according to the supplier (DSMZ, Braunschweig, Germany). Ten additional cell lines (C13, OV2008, A2780-CP, A2780S, IGROV-1, T8, IMCC3, 1MCC5, SKOV3 and A200S) were provided by Dr. Patricia Kruk (University of South Florida, Fla.). These ten cell lines were grown in RPMI 1640, supplemented with 10% Fetal Bovine Serum, 1% Sodium pyruvate, and 1% non essential amino acids. Tissue culture media and Thiazolyl Blue Tetrazolium Bromide were purchased from Sigma Aldrich (St. Louis, Mo.). […]
Cell proliferation and Drug sensitivity assays. Optimal cell number and linear range of drug concentration were determined for each cell line and drug as described previously (Bild A, Yao G, Chang S T, et al: Oncogenic pathways signatures in human cancers as guide to targeted therapies. Nature 439(7074):353-357, 2006, Potti A, Dressman H K, Bild A, et al: Genomic signatures to guide the use of chemotherapeutics. Nature Medicine 12(11): 1294-1300, 2006). […]

Another assay has as its system OAW42. The settings on record: pemetrexed, cell line OAW42; cited from earlier work.
The test system of a further assay is M14. The settings on record: pemetrexed, cell line M14; cited from earlier work.
Another assay concerns MCF7. The following applies: pemetrexed, cell line MCF7; cited from earlier work.
The next assay has as its system MALME-3M. The following applies: pemetrexed, cell line MALME-3M; cited from earlier work.
The test system of a further assay is SNB-19. The following applies: pemetrexed, cell line SNB-19; cited from earlier work.

Take `Nc1nc2[nH]cc(CCc3ccc(C(=O)N[C@@H](CCC(=O)O)C(=O)O)cc3)c2c(=O)[nH]1` [Pemetrexed, pemetrexed]: the “Resistant (Res) or Sensitive (Sen)” value in the assay with HL-60 is listed as “Res”; with MDA-MB-435, “Sen”; with SNU182, “Res”; with SW13 it was “Res”; in the assay with OVKAR, “Sen”; in the assay with SK-MEL-2, “Sen”. Besides, the “Resistant (Res) or Sensitive (Sen)” value in the assay with R103 is given as “Sen”; in the assay with ME43 it was “Res”; in the assay on Molt-4, “Res”; in the assay on SKMel19, “Res”; in the assay on SNU423, “Res”; in the assay on OAW42 it was “Sen”. Besides, the “Resistant (Res) or Sensitive (Sen)” value with M14 is “Sen”; in the assay on MCF7, “Res”; with MALME-3M it was “Sen”; in the assay with SNB-19 it was “Sen”. The “sensitivity to subsequent pemetrexed exposure” value in the assay on NSCLC cell line (H2030) (H2030 first treated for four days with a taxane (docetaxel or paclitaxel)) was “resistance to subsequent pemetrexed exposure was induced; also recorded: develops resistance”. The sensitivity to pemetrexed entry in the assay with NSCLC cell line (H2030) (H2030 first treated with pemetrexed) is listed as “sensitive”.
